Consider one compound from US20060009433A1, “Neuroprotective spirostenol pharmaceutical compositions” (priority 2003, published 2006).

Entries after “also recorded” stand apart in the source; their conditions may differ.

In one data set the test system is rat PC12 cells. Description: Trypan blue dye exclusion assay, PC12 cells (Example I). Conditions: 100 μM steroid, 72 hours. The format is cell-based. The protocol:
Rat PC12 cells were cultured as previously described. Yao et al., Brain Res. 889, 181-190 (2001). Human NT2 precursor (Ntera2/D1 teratocarcinoma) cells were obtained from Stratagene (La Jolla, Calif.) and cultured following the instructions of the supplier. Differentiated human NT2 neurons (NT2N) were obtained after treatment of the NT2 precursor cells with retinoic acid. Andrews, Dev. […] Aβ was dissolved in media and used either in the aggregated (left overnight at 4° C.) or soluble (containing oligomers such as dimers and tetramers) forms examined by electrophoresis as previously described. Yao et al., Brain Res. (2001). […] Id. Cell viability was measured using the trypan blue exclusion method as previously described. Id. In brief, for these studies, cells were treated for 72 hours with steroids in the presence or absence of increasing concentrations of Aβ. At the end of the incubation, the cells were washed three times with PBS and incubated for 15 minutes with 0.1% trypan blue stain solution at room temperature. After washing three times with PBS, 0.1 N NaOH was added to the cells and trypan blue staining was quantified using the Victor quantitative detection spectrophotometer (EGG-Wallac, Gaithersburg, Md.) at 450 nm. Cell protein levels were determined in the same samples by the method of Bradford (Bradford, Anal. Biochem., 72, 248-254 (1976)), where coomassie blue staining is detected at 590 nm.
The results obtained from using MTT assay were further confirmed with the trypan blue dye exclusion assay. […] Levels of viability were measured using the trypan blue assay as described under Materials and Methods. Results are expressed as fold trypan blue stained cells per total cell protein over control untreated cells. Results shown are means±SD (n=6-12).

A further data set has as its system human NT2 cells. As to the kind of experiment: MTT assay, glutamate-induced toxicity in NT2 cells. The format is cell-based. The note with it: 5 mM glutamate, three days; 1 to 50 μM compound; data not shown. (In general: Formazan colour is commonly taken as a measure of viable cells.)
In a further data set the target is T1, Aβ1-40 (Homo sapiens, UniProt P05067).
T1 construct: purchased American Peptide Co. (Sunnyvale, Calif.)
As to the kind of experiment: CPBBA, Aβ1-40. The format is binding. Here is the method:
(§1) At the end of the incubation time, samples were separated by 1.5% agarose (Type I-B) gel electrophoresis and transferred to nitrocellulose membrane (Schleicher & Schuell, Keene, N.H.) in 10×SSC buffer. The membrane was exposed to tritium-sensitive screen and analyzed by phosphoimaging using the Cyclone Storage phosphor system (Packard BioScience, Meridien, Conn.). Image-densitometric analysis was performed using the OptiQuant software (Packard). […] Low molecular weight unincorporated 22i-hydroxycholesterol is separated and eliminated during electrophoresis.

Data set [1] concerns PC12 cells, MDA-MB-231 cells or the human glioma cell line U87. Description: Differentiation in other cell lines. Conditions: data not shown. The format is cell-based.
Data set [2] deals with NT2 cells. Description: NT2 cell differentiation, phase-contrast morphology. The format is cell-based, human. Conditions: 25 μM; 3, 6 and 12 days (comparators 6 days).
The subject of the next data set is rat PC12 neuronal cells. Description: MTT assay, Aβ1-42-induced cytotoxicity in PC12 cells (Example I).
The next data set concerns the target Aβ1-42 (Homo sapiens, UniProt P05067). Description: Cholesterol-protein binding blot assay (CPBBA), Aβ1-42. The note with it: for inhibition of binding of radiolabeled 22R-hydroxycholesterol to Aβ1-42: 50 μM Aβ1-42. Here is the method:
as §1
The membrane with the 22R-hydroxycholesterol-Aβ peptide complexes was then used to examine Aβ levels. Membranes were blocked by incubating the nitrocellulose in 5% milk and treated for immunodetection of Aβ using ECL reagents (Amersham-Pharmacia, Piscataway, N.J.). Li et al., Proc. Natl. Acad. Sci. USA, 98, 1267-1272 (2001). Anti-Aβ antibody and secondary antibodies were used at 0.2 μg/ml and 1:5000 dilution, respectively.

The test system of data set [3] is NT2 cells. As to the kind of experiment: LDH and MTT assays, NT2 cell viability.
Data set [4] is described as follows: CPBBA with NT2 cell protein. The format is binding, human. Conditions: 3 hours at 37° C.; competition with unlabeled compound. Here is the method: After incubation, samples were separated by 1.0% agarose (Type I-B) gel electrophoresis and transferred to a nitrocellulose membrane (Schleicher & SchueII, Keene, N.H., USA) in 10×saline-sodium citrate (SSC) buffer. The membrane was exposed to a tritium-sensitive screen and analyzed by phosphoimaging using the Cyclone Storage Phosphor System (Packard BioScience, Meridien, Conn., USA). Image-densitometric analyses were performed using the OptiQuant software (Packard). […] Low molecular weight unincorporated 22R-hydroxycholesterol is separated and eliminated during electrophoresis.

As a reminder, the IC50 is the concentration that inhibits the measured activity by half.

Aβ1-42, sequence (P05067 672-713): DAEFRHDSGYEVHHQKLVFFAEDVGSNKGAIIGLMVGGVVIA
T1 sequence (P05067 672-711): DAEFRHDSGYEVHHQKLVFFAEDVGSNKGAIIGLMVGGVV

In the case of `CC(C)CC[C@@H](O)[C@@H](C)[C@H]1CC[C@H]2[C@@H]3CC=C4C[C@@H](O)CC[C@]4(C)[C@H]3CC[C@]12C` [SP222, 22R-hydroxycholesterol], in the data set on rat PC12 cells, the “rescue from Aβ1-42-induced cell death” value is “rescued”. The “rescue from Aβ25-35-induced cell death” value in the data set on rat PC12 cells is listed as “Neither 22R-hydroxycholesterol nor DHEA could rescue”. Moreover, in the data set with human NT2 cells, the “protection against glutamate-induced decrease in cell viability” value was “failed to protect the cells”. Moreover, at Aβ1-40, the “binding to Aβ1-40” value is given as “barely interacts”. Also, the “induction of differentiation in PC12, MDA-MB-231 or U87 cells” value in data set [1] is “such an effect was not found”. Moreover, the “effect on NT2 cell morphology (differentiation)” value in the data set with NT2 cells [2] is recorded as “induced morphologic changes”. Also, the “rescue from 25 μM Aβ-induced cytotoxicity” value in the data set with rat PC12 neuronal cells (MTT, 25 μM Aβ1-42) is “rescue all the cells; also recorded: full protection”. Further, in the data set on rat PC12 neuronal cells (MTT, 50 μM Aβ1-42), the “cells rescued in the presence of 50 μM Aβ” value was determined as 50%. In addition, the “PC12 cell viability, steroid alone” value with rat PC12 neuronal cells (MTT, absence of Aβ) was “did not affect PC12 cell viability”. For the same compound, in the data set on rat PC12 neuronal cells (Rattus norvegicus, PC-12, read-out: IC50 of protection from Aβ-induced toxicity), the 50% inhibitory concentration (IC50) came to 10 µM. In addition, the “protection by pretreatment followed by treatment with Aβ” value with rat PC12 neuronal cells (pretreatment of PC12 cells, data not shown) is “failed to offer any protection”. Further, the “protection against Aβ oligomer-induced toxicity” value with rat PC12 neuronal cells (soluble Aβ (oligomers), not shown) is “protected”. For the same compound, the figures for the “inhibition of binding of radiolabeled 22R-hydroxycholesterol to Aβ1-42” value on Aβ1-42 (50 μM unlabeled) and at Aβ1-42 (200 μM unlabeled) were 50% and 90%, respectively. Moreover, the “binding to Aβ1-42” value on Aβ1-42 (CPBBA, native conditions) is “binds”. Also, the “cytotoxicity at high concentrations” value with NT2 cells [3] (LDH and MTT, 25-50 μM, 3-day treatment) was “cytotoxic”. Also, the “concentration affecting viability of undifferentiated NT2 cells” value in the data set with NT2 cells [3] (MTT) was more than 10 µM. For the same compound, the “radiolabeling of NT2 cell protein with 3H-22R-hydroxycholesterol” value in data set [4] was “decreased in the presence of increasing concentrations of unlabeled 22R-hydroxycholesterol”.
